Source: BindingDB's records for doi:10.7270/Q28K77JP (Burnham Center For Chemical Genomics, 2010)

Biological target: Delta-type opioid receptor (Homo sapiens, UniProt P41143)
Assay: DOR antagonists, SAR follow-up, image-based (AID 2357)

Delta-type opioid receptor, sequence (P41143 whole entry): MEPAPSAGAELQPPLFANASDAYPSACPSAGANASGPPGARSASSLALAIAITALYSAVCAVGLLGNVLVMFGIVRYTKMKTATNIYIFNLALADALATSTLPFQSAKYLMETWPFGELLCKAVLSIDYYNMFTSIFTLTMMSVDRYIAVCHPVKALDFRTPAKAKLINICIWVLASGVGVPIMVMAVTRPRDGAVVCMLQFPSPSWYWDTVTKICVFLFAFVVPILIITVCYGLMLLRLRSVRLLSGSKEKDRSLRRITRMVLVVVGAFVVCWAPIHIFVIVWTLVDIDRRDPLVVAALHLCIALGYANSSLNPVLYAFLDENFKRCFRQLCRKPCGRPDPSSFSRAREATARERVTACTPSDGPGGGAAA

Row | IC50 | Compound
1 | 32 µM | CCC(N=Nc1ccnc2cc(Cl)ccc12)c1ccc(O)cc1 (configuration not stated) [4-[1-[2-(7-chloroquinolin-4-yl)hydrazinyl]propylidene]cyclohexa-2,5-dien-1-one]
2 | 18.9 µM | Oc1ccc(CN=Nc2ccnc3cc(Cl)ccc23)cc1O [(4Z)-4-[[2-(7-chloroquinolin-4-yl)hydrazinyl]methylidene]-2-hydroxycyclohexa-2,5-dien-1-one]
